{"source": "paper PMC11189555", "about": "“Aryl amino acetamides prevent Plasmodium falciparum ring development via targeting the lipid-transfer protein PfSTART1” (Nature Communications, 2024)", "key": {"[1]": {"test_system": "PopD-D7 M-833 resistant clone (PfSTART1 N309K)", "experiment": "Growth inhibition assay (72 h, LDH activity)", "assay_type": "cell-based, Plasmodium falciparum", "details": "for (av-uRBC) / (DMSO-uRBC) x100: PopD-D7; for Normalised to DMSO: PopD-D7 replicate 1", "experimental": "The drug was then removed, and parasites were allowed to recover. Another cycle of drug treatment (3 μM M-833) was then resumed. The resistant lines were cloned out by limiting dilution (diluting the culture into a 96-well plate to achieve an average of ~0.3 parasites per well), prior to growth inhibition assays and genomic DNA (gDNA) extraction (DNeasy Blood and Tissue kit (Qiagen)[18].\nParasite growth assays with inhibitory compounds were performed as per[11] and are fully described in the Supplementary Information. […]\nGrowth inhibition assays. Synchronised ring-stage parasites (0.3-0.6% parasitemia, 2% haematocrit) were grown for 72 h in a serial-dilution of the compound under […]\nand compound 4. Note that M-833 was first purchased from MolPort (MolPort -002-267-916) then made in-house at WEHI: the differences observed in EC50s across experiments are attributed to the different batches of M -833. For some experiments, 0, 0.25 or 2.5 mM of glucosamine (GlcN) was also added. Experiments were set up in technical duplicates or triplicates. Following a freeze -thaw cycle, lactate dehydrogenase (LDH) activity was assessed as an indicator of parasite growt h 5. 30 μL of parasite culture was incubated for 30 min in the dark with 75 μL Malstat mixture (0.1 M Tris pH 9.0, 20 g/L lactic acid, pH 7.5, 0.2% Triton-X100, 0.5 g/L acetylpyridine adenine dinucleotide (APAD, Sigma), 200 μg/mL nitroblue tetrazolium (NBT; Sigma), 1 μg/mL phenozine ethosulfate (PES; Sigma)). Absorbance was then measured at 650 nm, transformed using the formula below, plotted against the logarithm of the concentrations, and a non-linear regression (log(inhibitor) vs. response, variable slope) was calculated using GraphPad Prism to assess the half-inhibitory […]\nGrowth inhibition % = (1 − average(sample)− average(uRBC)) ∗ 100 […]\nThe DMSO samples were also used to assess growth of parasite in the presence of 0.25 and 2.5 mM GlcN (normalised by DMSO in 0 mM GlcN). […]"}, "[2]": {"experiment": "in vitro", "details": "human"}, "[3]": {"target": "T1, recombinant PfSTART1(WT) (I149-V394) (Plasmodium falciparum, UniProt Q8I298)", "T1 construct": "START domain alone (I149-V394 from PF3D7_0104200); 8xHis tag (N); TEV protease cleavage site (N); made in house; host or cells: Sf21 insect cells (baculovirus)", "T1 sequence (Q8I298 entry or part of it)": "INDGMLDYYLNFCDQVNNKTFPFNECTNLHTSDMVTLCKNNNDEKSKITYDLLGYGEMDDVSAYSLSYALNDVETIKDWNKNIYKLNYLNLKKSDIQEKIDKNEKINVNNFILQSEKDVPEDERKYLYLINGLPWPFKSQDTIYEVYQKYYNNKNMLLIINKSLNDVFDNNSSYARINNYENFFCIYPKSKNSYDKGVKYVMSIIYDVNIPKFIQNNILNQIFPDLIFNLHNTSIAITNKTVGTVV", "experiment": "Isothermal titration calorimetry", "assay_type": "binding", "details": "for Differential Power DP_Y / ΔH NDH_Y: PfSTART(WT), ITC replicate data", "text": "Codon optimised (Spodoptera frugiperda, Sf) START domain alone (I149-V394 from PF3D7_0104200) was synthesised by Integrated DNA Technologies and cloned into a modified baculovirus transfer vector (pAcGP67-A) with a N-terminal GP67-signal sequence, 8xHis tag, and TEV protease cleavage site. Recombinant baculovirus was generated via the flashBACTM Baculovirus Expression System using Sf21 cells (Life Technologies), amplified to reach a third passage viral stock, and 1.5% used to infect Sf21 for protein expression. After incubation for three days at 28 °C, media containing secreted protein was harvested by centrifugation and supplemented with 50 mM Tris pH 7.5, 20 mM MgCl2, 100 mM NaCl, and 10-20 mM imidazole. The supplemented protein sample was purified by nickel affinity chromatography (HisTrap Excel 5 mL, Cytiva), and eluted with 20 mM Tris pH 7.5, 500 mM NaCl, 300-500 mM imidazole. Eluted fractions were further purified using size-exclusion chromatography (Superdex S75 16/600 or Superdex 10/300, Cytiva) with the column pre-equilibrated with 20 mM HEPES pH 7.5, 150 mM NaCl, and peak-containing fractions concentrated and stored at -80 °C until required. If required, prior to ITC, a second size-exclusion chromatography step was performed to remove soluble aggregates.\nITC experiments were performed on a MicroCal PEAQ-ITC calorimeter at 25 °C, with a stirring speed of 750 rpm and a reference power of 5 μcal/sec. 500 μM M-833 series inhibitor solutions were diluted to 10 μM in 50 mM NaPO4^-3 (pH 7.4), 150 mM NaCl with a final DMSO concentration of 2% (v/v) (cell sample). PfSTART1 protein was dialysed extensively against 50 mM NaPO4^-3 (pH 7.4), 150 mM NaCl, before diluting to 90 μM in the same buffer with 2% (v/v) DMSO (syringe sample). The first injection was 0.4 μL over a 0.8 s duration, and the remaining 19 injections were 2 μL of 4 s duration, with 150 s injection spacing. Data were collected and analysed using the PEAQ-ITC software (MicroCal) and fit by a single site binding model. A fitted offset (constant control heat) was also applied to the integrated heat."}}, "data": [{"compound": "Cc1cc(Cl)c(S(=O)(=O)N2CCCC2)cc1OCC(=O)NC1CCCCC1", "note": "[M-833]", "values": [{"measurement": "(av-uRBC) / (DMSO-uRBC) x100", "setting": "[1]; conc. 9.14495 nM, Biological replicate 1 (2021-10-25)", "result": 108.232}, {"measurement": "(av-uRBC) / (DMSO-uRBC) x100", "setting": "[1]; conc. 9.14495 nM, Biological replicate 2 (2021-11-03)", "result": 108.229}, {"measurement": "(av-uRBC) / (DMSO-uRBC) x100", "setting": "[1]; conc. 9.14495 nM, Biological replicate 3 (2021-11-11)", "result": 134.103}, {"measurement": "(av-uRBC) / (DMSO-uRBC) x100", "setting": "[1]; conc. 27.4348 nM, Biological replicate 1 (2021-10-25)", "result": 109.088}, {"measurement": "(av-uRBC) / (DMSO-uRBC) x100", "setting": "[1]; conc. 27.4348 nM, Biological replicate 2 (2021-11-03)", "result": 108.743}, {"measurement": "(av-uRBC) / (DMSO-uRBC) x100", "setting": "[1]; conc. 27.4348 nM, Biological replicate 3 (2021-11-11)", "result": 131.145}, {"measurement": "(av-uRBC) / (DMSO-uRBC) x100", "setting": "[1]; conc. 82.3045 nM, Biological replicate 1 (2021-10-25)", "result": 105.921}, {"measurement": "(av-uRBC) / (DMSO-uRBC) x100", "setting": "[1]; conc. 82.3045 nM, Biological replicate 2 (2021-11-03)", "result": 106.368}, {"measurement": "(av-uRBC) / (DMSO-uRBC) x100", "setting": "[1]; conc. 82.3045 nM, Biological replicate 3 (2021-11-11)", "result": 120.919}, {"measurement": "(av-uRBC) / (DMSO-uRBC) x100", "setting": "[1]; conc. 246.914 nM, Biological replicate 1 (2021-10-25)", "result": 104.521}, {"measurement": "(av-uRBC) / (DMSO-uRBC) x100", "setting": "[1]; conc. 246.914 nM, Biological replicate 2 (2021-11-03)", "result": 107.825}, {"measurement": "(av-uRBC) / (DMSO-uRBC) x100", "setting": "[1]; conc. 246.914 nM, Biological replicate 3 (2021-11-11)", "result": 115.806}, {"measurement": "(av-uRBC) / (DMSO-uRBC) x100", "setting": "[1]; conc. 740.741 nM, Biological replicate 1 (2021-10-25)", "result": 96.6483}, {"measurement": "(av-uRBC) / (DMSO-uRBC) x100", "setting": "[1]; conc. 740.741 nM, Biological replicate 2 (2021-11-03)", "result": 106.073}, {"measurement": "(av-uRBC) / (DMSO-uRBC) x100", "setting": "[1]; conc. 740.741 nM, Biological replicate 3 (2021-11-11)", "result": 111.809}, {"measurement": "(av-uRBC) / (DMSO-uRBC) x100", "setting": "[1]; conc. 2222.22 nM, Biological replicate 1 (2021-10-25)", "result": 83.9595}, {"measurement": "(av-uRBC) / (DMSO-uRBC) x100", "setting": "[1]; conc. 2222.22 nM, Biological replicate 2 (2021-11-03)", "result": 95.9821}, {"measurement": "(av-uRBC) / (DMSO-uRBC) x100", "setting": "[1]; conc. 2222.22 nM, Biological replicate 3 (2021-11-11)", "result": 68.0249}, {"measurement": "(av-uRBC) / (DMSO-uRBC) x100", "setting": "[1]; conc. 6666.67 nM, Biological replicate 1 (2021-10-25)", "result": 42.8085}, {"measurement": "(av-uRBC) / (DMSO-uRBC) x100", "setting": "[1]; conc. 6666.67 nM, Biological replicate 2 (2021-11-03)", "result": 58.8022}, {"measurement": "(av-uRBC) / (DMSO-uRBC) x100", "setting": "[1]; conc. 6666.67 nM, Biological replicate 3 (2021-11-11)", "result": 17.0257}, {"measurement": "(av-uRBC) / (DMSO-uRBC) x100", "setting": "[1]; conc. 20000 nM, Biological replicate 1 (2021-10-25)", "result": 9.309}, {"measurement": "(av-uRBC) / (DMSO-uRBC) x100", "setting": "[1]; conc. 20000 nM, Biological replicate 2 (2021-11-03)", "result": 11.2449}, {"measurement": "(av-uRBC) / (DMSO-uRBC) x100", "setting": "[1]; conc. 20000 nM, Biological replicate 3 (2021-11-11)", "result": 4.179}, {"measurement": "Normalised to DMSO", "setting": "[1]; M-833 0.0390625 uM", "result": 0.8625}, {"measurement": "Normalised to DMSO", "setting": "[1]; M-833 0.078125 uM", "result": -4.169}, {"measurement": "Normalised to DMSO", "setting": "[1]; M-833 0.15625 uM", "result": -1.581}, {"measurement": "Normalised to DMSO", "setting": "[1]; M-833 0.3125 uM", "result": -1.15}, {"measurement": "Normalised to DMSO", "setting": "[1]; M-833 0.625 uM", "result": -0.1437}, {"measurement": "Normalised to DMSO", "setting": "[1]; M-833 1.25 uM", "result": -3.594}, {"measurement": "Normalised to DMSO", "setting": "[1]; M-833 2.5 uM", "result": 7.619}, {"measurement": "Normalised to DMSO", "setting": "[1]; M-833 5 uM", "result": 28.7494}, {"measurement": "Fold change compared to 3D7", "setting": "[1]; Supplementary Table 1, EC50 on PopD-D7 vs 3D7", "result": 31, "unit": "fold"}, {"measurement": "CC50", "setting": "[2]", "result": "> 40000", "unit": "nM"}, {"measurement": "Kd", "setting": "[3]; ITC, 25 °C, 90 µM PfSTART1 titrated into 10 µM compound, n = 2, ± SD", "result": "42 ± 12", "unit": "nM"}, {"measurement": "ΔH", "setting": "[3]; ITC, 25 °C, n = 2, ± SD", "result": "-7.6 ± 0.2", "unit": "kcal/mol"}, {"measurement": "−TΔS", "setting": "[3]; ITC, 25 °C, n = 2, ± SD", "result": "-2.5 ± 0.4", "unit": "kcal/mol"}, {"measurement": "Differential Power DP_Y", "setting": "[3]; DP_X 0.083333", "result": -0.001604}, {"measurement": "Differential Power DP_Y", "setting": "[3]; DP_X 0.1", "result": -0.001099}, {"measurement": "ΔH NDH_Y", "setting": "[3]; NDH_X 0.104703", "result": -8.4}, {"measurement": "ΔH NDH_Y", "setting": "[3]; NDH_X 0.192876", "result": -6.335}]}]}
